Laboratory results taken from patent US6632795B1, “Dolastatin-15 derivatives in combination with taxanes” (BASF Aktiengesellschaft, priority 1997, dated 2003).
Peptide text beside a SMILES is read from it.

Key:
[1] = test system: PC-3 human prostate tumor xenograft; experiment: PC-3 human tumor xenograft model; type: in vivo, human (xenograft in athymic nude mice); conditions: Q2Dx3, 5,12,19; for MTW d35 % T/C: mean tumor weight day 35; for R[…]: of 6 animals
Description: (§1) Human tumors from lung (LX-1), colon (CX-1) and prostate (PC-3) which had been grown in athymic nude mice were transplanted (xenografted) into new recipient mice, as is well known in the art. The transplanted tumor fragments were approximately 50 mg in size. The day of transplantation was designated as day 0. The combination therapy of the present invention was evaluated for anti-tumor efficacy following administration to the xenograft-bearing mice.
(§2) Combination therapy was accomplished by intravenous administration of both drugs. […] In other words, treatment consisted of 3 cycles, starting on days 5, 12 and 19 post tumor implantation. One cycle of treatment consisted of treatment every other day for a total of three times.
(§3) Tumor diameters and body weights were measured twice weekly. Tumor volumes were calculated using the diameters measured with Vernier calipers, and the formula:
(§4) (length×width^2)/2=mg of tumor weight
(§5) Mean tumor weights (MTW) were calculated for each treatment group, and T/C values determined for each group relative to the untreated control tumors.
(§6) Results are also presented as Net log Cell Kill and are calculated as follows: [formula]
(§7) T and C=The median days required for the control and treated tumors to reach a specified tumor size, in this instance 2000 mm^3.
(§8) Doubling Time=Time required for control tumors to double in size.
The Q2dx3; 5, 12 and 19 dosing regimen described above was used in this example. Paclitaxel was administered IP one hour after Compound (xvii) was administered IV. The optimal single dose of both paclitaxel and Compound (xvii) was not determined.

[2] = test system: CX-1 human colon tumor xenograft; experiment: CX-1 human tumor xenograft model; type: in vivo, human (xenograft in athymic nude mice); conditions: Q2Dx3, 5,12,19
Description: as §1, §2, §3, §4, §5, §6, §7, §8
(§9) The Q2dx3; 5, 12 and 19 dosing regimen described above was used in this example. Paclitaxel was administered IV one hour after Compound (xvii) was administered IV.

[3] = test system: P388 tumor cells (murine lymphocytic leukemia cell line); experiment: P388 in vivo tumor model (ascites, intraperitoneal implant); parameters: species or system mice; conditions: Q4Dx3, 1
Description: The P388 tumor model employs a murine lymphocytic leukemia cell line (See Schabel et al., Pharmac. Ther. A, 1:411-435). The P388 tumor cells used in this invention, were harvested from donor mice by peritoneal lavage at day 7 post transplant. 1×10^6 P388 tumor cells were then implanted intraperitoneally in a volume of 0.5 ml in mice.
A typical dosing regimen includes initiation of treatment approximately one day post transplant followed by treatment on days 5 and 9 post transplant. Generally the compounds of Formula I are administered intravenously (i.v.) and the paclitaxel, taxotere or modified taxane or taxoid analog is administered intraperitoneally (i.p.).
Therapeutic results of the combinations of the invention against P388 cells, are presented in terms of increase in lifespan reflected by the relative median survival time (MST) of treated (T) versus control (C) group (survival period for untreated mice is generally in the range of 11 to 13 days) and is represented as %T/C values. According to the National Cancer Institute guidelines a %T/C in the range or 128-190% indicates a drug with moderate to good activity. In addition, the Net log Cell Kill is used to compare efficacy of different schedules and combinations, and is calculated as follows: [formula]
Doubling Time=time required for control tumors to double once (0.4 days)
T and C=the median survival time (days) for the control (C) and treated (T) mice.
Duration of treatment with drug 0.332=Derived constant
1×10^6 P388 tumor cells were transplanted intraperitoneally in a volume of 0.5 ml in mice. Treatment was initiated approximately 1 day later followed by treatment on both day 5 and day 9, post transplant. Compound (xvii) was administered IV while paclitaxel was administered IP. […] The dosing was sequential with compound (xvii) being administered first followed by paclitaxel one hour later.

[4] = test system: LX-1 human lung tumor xenograft; experiment: LX-1 human tumor xenograft model; type: in vivo, human (xenograft in athymic nude mice); conditions: Q2Dx3, 5,12,19
Description: as §1, §2, §3, §4, §5, §6, §7, §8, §9

[5] = test system: National Cancer Institute's P388 lymphocytic leukemia cell line; conditions: cited from earlier work
[6] = cited from earlier work
[7] = paclitaxel 10 mg/kg IV alone, of 6 animals

CC(C)[C@H](NC(=O)[C@H](C(C)C)N(C)C)C(=O)N(C)[C@H](C(=O)N1CCC[C@H]1C(=O)N1CCC[C@H]1C(=O)NCc1ccccc1)C(C)C [Compound (xvii)] (HELM PEPTIDE1{[CC(C)[C@@H](C(=O)[*:2])N(C)C].V.[meV].P.P.[c1ccc(CN[*:1])cc1]}$$$$V2.0)
% Toxic Death ([1]; (xvii) 30 mg/kg IV alone): 33%
% Toxic Death ([2]; (xvii) 25 mg/kg IV alone): 83%
% Toxic Death ([3]; (xvii) 20 mg/kg IV alone): 0%
% Toxic Death ([3]; (xvii) 40 mg/kg IV alone): 0%
% Toxic Death ([3]; (xvii) 60 mg/kg IV alone): 0%
% Toxic Death ([4]; (xvii) 7.5 mg/kg IV alone): 0%
% Toxic Death ([4]; (xvii) 15 mg/kg IV alone): 0%
% Toxic Death ([4]; (xvii) 25 mg/kg IV alone): 0%

Dolastatin-15
inhibition of cell growth (in words) [5]: markedly inhibits the growth
aqueous solubility (in words) [6]: poor aqueous solubility

CC(=O)O[C@H]1C(=O)[C@@]2(C)[C@H]([C@H](OC(=O)c3ccccc3)[C@]3(O)C[C@H](OC(=O)[C@H](O)[C@@H](NC(=O)c4ccccc4)c4ccccc4)C(C)=C1C3(C)C)[C@]1(OC(C)=O)CO[C@@H]1C[C@@H]2O [Paclitaxel]
% Toxic Death ([1]; paclitaxel 10 mg/kg IP alone): 0%
Net Log Cell Kill ([1]; paclitaxel 10 mg/kg IP alone): −0.672
MTW d35 % T/C ([1]; paclitaxel 10 mg/kg IP alone): 55.12%
R[…] ([1]; paclitaxel 10 mg/kg IP alone): 2
% Toxic Death ([1]; paclitaxel 20 mg/kg IP alone): 0%
Net Log Cell Kill ([1]; paclitaxel 20 mg/kg IP alone): 1.98
MTW d35 % T/C ([1]; paclitaxel 20 mg/kg IP alone): 2.86%
% Toxic Death ([1]; paclitaxel 30 mg/kg IP alone): 17%
Net Log Cell Kill ([1]; paclitaxel 30 mg/kg IP alone): toxic
MTW d35 % T/C ([1]; paclitaxel 30 mg/kg IP alone): 2%
R[…] ([1]; paclitaxel 30 mg/kg IP alone): 5
Net Log Cell Kill ([2]; paclitaxel 10 mg/kg IV alone): −0.124
MTW d55 % T/C ([2]; paclitaxel 10 mg/kg IV alone, mean tumor weight day 55): 38.12%
R[…] [2, 7]: 2
% T/C (median survival time treated vs control) ([3]; paclitaxel 10 mg/kg IP alone): 183%
% Toxic Death ([3]; paclitaxel 10 mg/kg IP alone): 0%
Net Log Cell Kill ([3]; paclitaxel 10 mg/kg IP alone): 1.33
% 60 Day Cures ([3]; paclitaxel 20 mg/kg IP alone): 4%
% T/C (median survival time treated vs control) ([3]; paclitaxel 20 mg/kg IP alone): 175%
% Toxic Death ([3]; paclitaxel 20 mg/kg IP alone): 0%
Net Log Cell Kill ([3]; paclitaxel 20 mg/kg IP alone): 0.66
% 60 Day Cures ([3]; paclitaxel 30 mg/kg IP alone): 3%
% T/C (median survival time treated vs control) ([3]; paclitaxel 30 mg/kg IP alone): 204%
% Toxic Death ([3]; paclitaxel 30 mg/kg IP alone): 8%
Net Log Cell Kill ([3]; paclitaxel 30 mg/kg IP alone): 2.99
% Toxic Death ([4]; paclitaxel 10 mg/kg IV alone): 0%
Net Log Cell Kill ([4]; paclitaxel 10 mg/kg IV alone): −0.374
MTW d27 % T/C ([4]; paclitaxel 10 mg/kg IV alone, mean tumor weight day 27): 10.5%
R[…] [4, 7]: 2
